Target: T1, EGFR kinase (EGFR intracellular domain) (Homo sapiens, UniProt P00533)
T1 construct: made in house; host or cells: SF-21 insect cells infected with recombinant baculovirus BAC-EGFR
Test: Determination of EGFR kinase inhibitory activity
Format: biochemical
Parameters: concentration or dose not given beside the values
Details: compound at 1.0 μL (so in the source), [γ-32P]ATP, poly-Glu:Tyr (4:1) substrate
Procedure: Human EGFR gene was cloned by RT-PCR using total RNA prepared from A431 cells as a template. The primer used for RT-PCR was prepared in consideration of the information of nucleotide sequence (Genbank Accession No. X00588) of EGFR gene by adding a nucleotide sequence encoding DYKDDDD peptide and a restriction enzyme recognition sequence to a nucleotide sequence (corresponding to 2191-3819 of Genbank Accession No. X00588 as a base, 669-1210 amino acids of Genbank Accession No. NP_005219 as a protein) encoding the EGFR intracellular domain region such that the protein contains an N-terminal DYKDDDD peptide tag. The primer nucleotide sequence is shown below.
(§1) SF-21 cells were sown at 1×10^6 cells/mL in Sf-900II SFM medium (1 L, Invitrogen) containing 10% fetal bovine serum (trace), 50 mg/L gentamicin (Invitrogen) and 0.1% Pluronic F-68 (Invitrogen), and shaking culture was performed using a 2 L volume Erlenmeyer flask at 27° C., 100 rpm. After culturing for 24 hrs, recombinant baculovirus BAC-EGFR (13.4 mL) was added, and the mixture was further cultured for 3 days. The culture medium was centrifuged at 2,000 rpm for 5 min to give virus-infected cells. The infected cells were washed with a phosphate buffered saline (Invitrogen), centrifuged under the same conditions, and the cells were preserved at −80° C. The cryopreserved cells were thawed in ice, suspended in buffer A (50 mM Tris buffer (30 mL, pH 7.4) containing 20% glycerol, 0.15 M NaCl) supplemented with Complete Protease Inhibitor (Boehringer), and ruptured 3 times with a Polytron homogenizer (Kinematica) at 20,000 rpm for 30 sec. The ruptured solution was clarified by centrifugation at 40,000 rpm for 30 min, and filtered with a 0.45 μm filter. The filtrate was passed through a column packed with Anti-FLAG M2 Affinity Gel (4 mL, Sigma-Aldrich) at a flow rate of about 0.5 mL/min. The column was washed with buffer A, and eluted with buffer A containing 100 μg/mL of FLAG peptide. The eluent was concentrated with Vivaspin 20 (Vivascience) having a molecular weight cut off of 30K. The concentrate was purified by gel filtration using Hi Load 16/60 Superdex 200 pg (GE Healthcare Bioscience) equilibrated with buffer A. The fractions containing EGFR intracellular domain were collected and cryopreserved at −80° C.
EGFR kinase reaction was performed using a 96 well plate. As a buffer for kinase reaction, a buffer having a composition of 50 mM Tris-HCl (pH 7.5), 5 mM MnCl2, 2 mM dithiothreitol, 0.01% Tween-20 was used. The compound of the present invention was dissolved in dimethyl sulfoxide (DMSO), and diluted with the kinase reaction buffer so that DMSO concentration would be 0.1% during kinase reaction. This compound solution (10 μL) was mixed with a kinase reaction buffer (20 μL) containing EGFR intracellular domain (0.625 μg/mL) obtained in Experimental Example 2B and polypeptide substrate poly-Glu:Tyr (4:1) (Sigma Ltd., 12.5 μg/mL), and the mixture was stood at room temperature for 5 min. […] A kinase reaction was performed at room temperature for 10 min, and the kinase reaction was quenched by addition of 20% TCA solution (50 μL). The mixture after completion of the reaction was stood at room temperature for 30 min, and acid insoluble fractions in the mixture after completion of the reaction were collected in a 96 well GF/C filter plate (PerkinElmer) using a cell harvester (PerkinElmer). Thereafter, the filter containing the acid insoluble fractions was washed with 3% phosphoric acid solution. After washing, the filter plate was dried at 45° C. for 60 min, and 25 μL of MicroScinti 0 (PerkinElmer) was added. The radioactivity was measured using TopCount (PerkinElmer). EGFR kinase inhibitory rate (%) of the test compound was calculated by the following formula:
Inhibitory rate (%)=(1−(count of test compound−blank)÷(control−blank))×100

T1 sequence (P00533 669-1210): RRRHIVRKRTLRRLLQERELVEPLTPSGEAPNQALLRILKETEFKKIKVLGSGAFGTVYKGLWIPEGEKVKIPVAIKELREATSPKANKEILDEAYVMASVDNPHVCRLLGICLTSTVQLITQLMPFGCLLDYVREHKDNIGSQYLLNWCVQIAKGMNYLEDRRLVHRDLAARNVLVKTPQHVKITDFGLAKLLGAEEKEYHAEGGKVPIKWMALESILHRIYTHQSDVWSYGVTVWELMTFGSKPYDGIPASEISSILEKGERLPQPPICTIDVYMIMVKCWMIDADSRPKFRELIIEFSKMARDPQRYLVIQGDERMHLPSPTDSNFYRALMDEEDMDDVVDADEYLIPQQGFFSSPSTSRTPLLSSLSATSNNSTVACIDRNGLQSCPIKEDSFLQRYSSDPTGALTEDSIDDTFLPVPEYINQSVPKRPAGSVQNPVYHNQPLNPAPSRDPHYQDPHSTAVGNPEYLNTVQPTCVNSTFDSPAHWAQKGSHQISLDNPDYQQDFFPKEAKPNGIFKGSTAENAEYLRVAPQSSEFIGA

`Cn1ccc2ncnc(Nc3ccc(Oc4cccc5sncc45)c(Cl)c3)c21` [Example 1, N-[4-(1,2-benzoisothiazol-4-yloxy)-3-chlorophenyl]-5-methyl-5H-pyrrolo[3,2-d]pyrimidin-4-amine] and `OCCn1ccc2ncnc(Nc3ccc(Oc4cccc5sncc45)c(Br)c3)c21` [Example 45] are the same in “inhibitory rate (%) at 1.0 μL” value: 99% for the first, 99% for the second.

Compared with `CC(C)(CO)C(=O)NCCn1ccc2ncnc(Nc3ccc(Oc4cccc5sncc45)c(Cl)c3)c21` [Example 10, N-[2-(4-{[4-(1,2-benzoisothiazol-4-yloxy)-3-chlorophenyl]amino}-5H-pyrrolo[3,2-d]pyrimidin-5-yl)ethyl]-3-hydroxy-2,2-dimethylpropanamide], `CC(C)(N)CC(=O)NCCn1ccc2ncnc(Nc3ccc(Oc4cccc5sncc45)c(Cl)c3)c21` [Example 62, 3-amino-N-[2-(4-{[4-(1,2-benzoisothiazol-4-yloxy)-3-chlorophenyl]amino}-5H-pyrrolo[3,2-d]pyrimidin-5-yl)ethyl]-3-methylbutanamide] is higher in “inhibitory rate (%) at 1.0 μL” value: 98% for the first, 99% for the second.

First: CC(=O)NCCn1ccc2ncnc(Nc3ccc(Oc4cccc5nscc45)c(Cl)c3)c21 [Example 12, N-[2-(4-{[4-(2,1-benzoisothiazol-4-yloxy)-3-chlorophenyl]amino}-5H-pyrrolo[3,2-d]pyrimidin-5-yl)ethyl]acetamide]
Second: CS(=O)(=O)CC(=O)NCCn1ccc2ncnc(Nc3ccc(Oc4cccc5sncc45)c(Cl)c3)c21.CS(=O)(=O)O [Example 24, N-[2-(4-{[4-(1,2-benzoisothiazol-4-yloxy)-3-chlorophenyl]amino}-5H-pyrrolo[3,2-d]pyrimidin-5-yl)ethyl]-2-(methylsulfonyl)acetamide methanesulfonate]
The “inhibitory rate (%) at 1.0 μL” value of the first is lower: 95% for the first, 100% for the second.

Target: T2, HER2 kinase (HER2 intracellular domain) (Homo sapiens, UniProt P04626)
T2 construct: made in house; host or cells: SF-21 insect cells infected with recombinant baculovirus BAC-HER2
Test: Determination of HER2 kinase inhibitory activity
Format: biochemical
Parameters: concentration or dose not given beside the values
Details: compound at 1.0 μL (so in the source), [γ-32P]ATP, poly-Glu:Tyr (4:1) substrate
Procedure: Human HER2 gene was cloned by RT-PCR using total RNA prepared from MCF7 cells as a template. The primer used for RT-PCR was prepared in consideration of the information of nucleotide sequence (Genbank Accession No. M11730) of HER2 gene by adding a nucleotide sequence encoding DYKDDDD peptide and a restriction enzyme recognition sequence to a nucleotide sequence (corresponding to 2176-3918 of Genbank Accession No. M11730 as a base, 676-1255 amino acids of Genbank Accession No. NP_004439 as a protein) encoding the HER2 intracellular domain region such that the protein contains an N-terminal DYKDDDD peptide tag. The primer nucleotide sequence is shown below.
as §1, with “hr,” for “hrs,”, “BAC-HER2” for “BAC-EGFR”, “HER2” for “EGFR”
HER2 kinase reaction was performed using a 96 well plate. As a buffer for kinase reaction, a buffer having a composition of 50 mM Tris-HCl (pH 7.5), 5 mM MnCl2, 2 mM dithiothreitol, 0.01% Tween-20 was used. The compound of the present invention was dissolved in dimethyl sulfoxide (DMSO), and diluted with the kinase reaction buffer so that DMSO concentration would be 0.1% during kinase reaction. This compound solution (10 μL) was mixed with a kinase reaction buffer (20 μL) containing HER2 intracellular domain (0.625 μg/mL) obtained in Experimental Example 1B and polypeptide substrate poly-Glu:Tyr (4:1) (Sigma Ltd., 12.5 μg/mL), and the mixture was stood at room temperature for 5 min. Then, a kinase reaction buffer (20 μL) containing 125 μM ATP and 45 μCi/mL [γ-^32P]ATP was added, and the kinase reaction was initiated with 50 μL of the final reaction mixture. A kinase reaction was performed at room temperature for 10 min, and the kinase reaction was quenched by addition of 20% TCA solution (50 μL). The mixture after completion of the reaction was stood at room temperature for 30 min, and acid insoluble fractions in the mixture after completion of the reaction were collected in a 96 well GF/C filter plate (PerkinElmer) using a cell harvester (PerkinElmer). Thereafter, the filter containing the acid insoluble fractions was washed with 3% phosphoric acid solution. After washing, the filter plate was dried at 45° C. for 60 min, and 25 μL of MicroScinti 0 (PerkinElmer) was added. The radioactivity was measured using TopCount (PerkinElmer). HER2 kinase inhibitory rate (%) of the test compound was calculated by the following formula: […]

T2 sequence (P04626 676-1255): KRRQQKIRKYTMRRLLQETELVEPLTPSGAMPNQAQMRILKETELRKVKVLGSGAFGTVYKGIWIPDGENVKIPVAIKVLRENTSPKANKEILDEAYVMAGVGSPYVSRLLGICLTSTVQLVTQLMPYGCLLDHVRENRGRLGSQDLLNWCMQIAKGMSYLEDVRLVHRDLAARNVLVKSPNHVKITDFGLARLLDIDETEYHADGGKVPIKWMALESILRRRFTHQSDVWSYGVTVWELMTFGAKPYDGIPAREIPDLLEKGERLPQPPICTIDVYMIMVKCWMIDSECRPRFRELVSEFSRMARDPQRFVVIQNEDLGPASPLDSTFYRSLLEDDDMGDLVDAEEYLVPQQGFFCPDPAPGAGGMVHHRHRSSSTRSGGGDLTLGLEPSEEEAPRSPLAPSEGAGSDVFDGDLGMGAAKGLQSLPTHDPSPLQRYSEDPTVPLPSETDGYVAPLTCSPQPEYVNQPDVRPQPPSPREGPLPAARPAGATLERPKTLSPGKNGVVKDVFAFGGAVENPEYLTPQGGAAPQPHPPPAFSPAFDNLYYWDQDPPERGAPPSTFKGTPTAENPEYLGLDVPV

`Cl.Cn1c(Cl)cc2ncnc(Nc3ccc(Oc4cccc5sncc45)c(Cl)c3)c21` [Example 2, N-[4-(1,2-benzoisothiazol-4-yloxy)-3-chlorophenyl]-6-chloro-5-methyl-5H-pyrrolo[3,2-d]pyrimidin-4-amine hydrochloride] and `CC(=O)NCCn1ccc2ncnc(Nc3ccc(Oc4cccc5sncc45)c(Cl)c3)c21` [Example 4, N-[2-(4-{[4-(1,2-benzoisothiazol-4-yloxy)-3-chlorophenyl]amino}-5H-pyrrolo[3,2-d]pyrimidin-5-yl)ethyl]acetamide] are the same in “inhibitory rate (%) at 1.0 μL” value: 100% for the first, 100% for the second.

`Clc1cc(N2CCn3ccc4ncnc2c43)ccc1Oc1cccc2sncc12` [Example 13, 4-[4-(1,2-benzoisothiazol-4-yloxy)-3-chlorophenyl]-5,6-dihydro-4H-pyrrolo[3,2,1-de]pteridine] and `CC(C)(N)C(=O)NCCn1ccc2ncnc(Nc3ccc(Oc4cccc5sncc45)c(Cl)c3)c21` [Example 60, N-[2-(4-{[4-(1,2-benzoisothiazol-4-yloxy)-3-chlorophenyl]amino}-5H-pyrrolo[3,2-d]pyrimidin-5-yl)ethyl]-2-methylalaninamide] are the same in “inhibitory rate (%) at 1.0 μL” value: 100% for the first, 100% for the second.

First: OCCn1ccc2ncnc(Nc3ccc(Oc4ccc5cnsc5c4)c(Cl)c3)c21 [Example 20, 2-(4-{[4-(1,2-benzoisothiazol-6-yloxy)-3-chlorophenyl]amino}-5H-pyrrolo[3,2-d]pyrimidin-5-yl)ethanol]
Second: Cc1cc(Nc2ncnc3ccn(CCO)c23)ccc1Oc1cccc2sncc12 [Example 31, 2-(4-{[4-(1,2-benzoisothiazol-4-yloxy)-3-methylphenyl]amino}-5H-pyrrolo[3,2-d]pyrimidin-5-yl)ethanol]
The “inhibitory rate (%) at 1.0 μL” value of the first is lower: 98% for the first, 100% for the second.

Going from `COc1cc(Nc2ncnc3ccn(CCO)c23)ccc1Oc1cccc2sncc12` [Example 44, 2-(4-{[4-(1,2-benzoisothiazol-4-yloxy)-3-methoxyphenyl]amino}-5H-pyrrolo[3,2-d]pyrimidin-5-yl)ethanol] to `CC(C)(CO)C(=O)NCCn1ccc2ncnc(Nc3cc(F)c(Oc4cccc5sncc45)c(Cl)c3)c21` [Example 52, N-[2-(4-{[4-(1,2-benzoisothiazol-4-yloxy)-3-chloro-5-fluorophenyl]amino}-5H-pyrrolo[3,2-d]pyrimidin-5-yl)ethyl]-3-hydroxy-2,2-dimethylpropanamide], the “inhibitory rate (%) at 1.0 μL” value rises from 98% to 99%.

Source: patent US20090233937A1 (TAKEDA PHARMACEUTICAL COMPANY LIMITED, priority 2008, published 2009)
